Assay [1] deals with human P2X7 (Homo sapiens (Human), UniProt Q99572). Kind of assay: Human P2X7 functional assay (Ca2+ influx, Fluo-4, FDSS). The assay is classed as cell-based. The following applies: antagonistic activity with respect to the human P2X7 receptor; BzATP final concentration 80 microM. The method, boiled down:
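Ca2+ influx was triggered with BzATP (80 μM final) after a 10-min room-temperature compound preincubation and monitored with Fluo-4 (ex 480/em 540 nm) on FDSS. The cells were HEK293 stably carrying FLAG-tagged human P2X7. Duplicate-averaged 7-point dose-responses gave IC50s.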

For assay [2], the target named is rat P2X7 (Rattus norvegicus (Rat), UniProt Q64663). Kind of assay: Rat P2X7 functional assay (Ca2+ influx, Fluo-4, FDSS). The note with it: HEK293 cells stably expressing rat P2X7; BzATP final 10 microM; 7-point dose-response; read-out: Antagonistic activities with respect to the rat P2X7 receptor (IC50). It is filed as cell-based. The method, boiled down:
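IC50 derived from 7-point dose-response in duplicate, measuring inhibition of BzATP-evoked (final 10 microM) intracellular Ca2+ increase by Fluo-4 fluorescence on FDSS. Rat P2X7-HEK293 cells were exposed to compound for 10 min in the dark beforehand.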

As a reminder, the IC50 is the concentration needed to halve the response being measured.

Chain of rat P2X7 (Q64663 whole entry): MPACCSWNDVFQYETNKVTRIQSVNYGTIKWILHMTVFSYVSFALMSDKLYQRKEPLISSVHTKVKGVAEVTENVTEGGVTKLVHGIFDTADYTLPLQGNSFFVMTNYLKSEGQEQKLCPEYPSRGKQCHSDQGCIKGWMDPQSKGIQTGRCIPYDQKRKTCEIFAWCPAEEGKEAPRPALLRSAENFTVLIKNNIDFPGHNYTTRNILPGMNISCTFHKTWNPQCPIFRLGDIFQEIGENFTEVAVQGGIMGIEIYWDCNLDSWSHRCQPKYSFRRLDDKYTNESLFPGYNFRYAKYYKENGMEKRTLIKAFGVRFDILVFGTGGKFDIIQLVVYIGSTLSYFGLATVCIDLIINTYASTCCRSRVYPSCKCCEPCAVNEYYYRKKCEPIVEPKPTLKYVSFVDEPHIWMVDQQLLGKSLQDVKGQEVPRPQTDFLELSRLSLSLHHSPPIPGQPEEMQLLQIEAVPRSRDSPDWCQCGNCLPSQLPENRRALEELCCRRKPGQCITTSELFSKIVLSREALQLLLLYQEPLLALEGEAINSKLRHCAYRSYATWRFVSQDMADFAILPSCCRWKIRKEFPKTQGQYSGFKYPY
Chain of human P2X7 (Q99572 whole entry): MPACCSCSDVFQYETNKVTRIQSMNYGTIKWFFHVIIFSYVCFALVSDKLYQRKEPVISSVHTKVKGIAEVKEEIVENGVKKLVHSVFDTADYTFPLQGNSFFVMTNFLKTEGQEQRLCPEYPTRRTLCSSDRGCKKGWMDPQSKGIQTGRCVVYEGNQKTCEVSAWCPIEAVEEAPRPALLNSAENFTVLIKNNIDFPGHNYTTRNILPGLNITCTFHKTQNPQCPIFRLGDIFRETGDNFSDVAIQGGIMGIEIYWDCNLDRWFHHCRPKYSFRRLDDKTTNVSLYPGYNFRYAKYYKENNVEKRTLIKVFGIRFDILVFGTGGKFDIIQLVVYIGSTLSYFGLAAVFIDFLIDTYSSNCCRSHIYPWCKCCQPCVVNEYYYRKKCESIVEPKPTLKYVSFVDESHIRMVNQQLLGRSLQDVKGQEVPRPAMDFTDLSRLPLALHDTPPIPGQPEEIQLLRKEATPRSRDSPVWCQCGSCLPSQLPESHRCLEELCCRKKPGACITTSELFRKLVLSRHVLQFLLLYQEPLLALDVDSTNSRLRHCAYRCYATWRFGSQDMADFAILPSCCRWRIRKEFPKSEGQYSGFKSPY

For the compound `O=C(NC1CC1c1ccc(Cl)cc1Cl)[C@]1(F)CC[C@H](O)c2ncccc21` (stereo partly drawn) [Example 238, (5S,8S)-N-((trans)-2-(2,4-dichlorophenyl)cyclopropyl)-5-fluoro-8-hydroxy-5,6,7,8-tetrahydroquinoline-5-carboxamide], the IC50 is below 50 nM in assay [1] and below 1000 nM in assay [2].

With `C[C@H](NC(=O)[C@]1(F)CC[C@H](O)c2ncccc21)c1ccc(F)cc1Cl` [Example 239, (5S,8S)-N-((S)-1-(2-chloro-4-fluorophenyl)ethyl)-5-fluoro-8-hydroxy-5,6,7,8-tetrahydroquinoline-5-carboxamide], the IC50 in assay [1] is 101 to 300 nM; in assay [2] it was below 1000 nM.

`O=C(NCC1(c2ccc(Cl)cc2Cl)CCOCC1)[C@]1(F)CC[C@H](O)c2ncccc21` [Example 240, (5S,8S)-N-((4-(2,4-dichlorophenyl)tetrahydro-2H-pyran-4-yl)methyl)-5-fluoro-8-hydroxy-5,6,7,8-tetrahydroquinoline-5-carboxamide]: the IC50 is 301 to 1000 nM in assay [1] and below 1000 nM in assay [2].

On to `O=C(NCc1ccc(Cl)cc1Cl)[C@]1(F)CC[C@H](O)c2ncc(F)cc21` [Example 241, (5S,8S)-N-(2,4-dichlorobenzyl)-3,5-difluoro-8-hydroxy-5,6,7,8-tetrahydroquinoline-5-carboxamide], for which the IC50 in assay [1] was below 50 nM; in assay [2], below 1000 nM.

For `O=C(NCc1ccc(F)cc1Cl)[C@]1(F)CC[C@H](O)c2ncc(F)cc21` [Example 242, (5S,8S)-N-(2-chloro-4-fluorobenzyl)-3,5-difluoro-8-hydroxy-5,6,7,8-tetrahydroquinoline-5-carboxamide], the figures for the IC50 in assay [1] and in assay [2] were below 50 nM and below 1000 nM, respectively.

On to `O=C(NCc1ccc(Cl)cc1Cl)[C@]1(F)CC[C@H](O)c2c1ccc[n+]2[O-]` [Example 245, (5S,8S)-5-((2,4-dichlorobenzyl)carbamoyl)-5-fluoro-8-hydroxy-5,6,7,8-tetrahydroquinoline 1-oxide], for which the IC50 in assay [1] was below 50 nM; in assay [2], below 1000 nM.

Regarding `O=C1CC[C@](F)(C(=O)NCc2cccc(C(F)(F)F)c2Cl)c2cccnc21` [Example 246, (R)-N-(2-chloro-3-(trifluoromethyl)benzyl)-5-fluoro-8-oxo-5,6,7,8-tetrahydroquinoline-5-carboxamide], the IC50 was below 50 nM in assay [1] and below 1000 nM in assay [2].

As to `O=C1CC[C@@](F)(C(=O)NCc2cccc(C(F)(F)F)c2Cl)c2cccnc21` [Example 247, (S)-N-(2-chloro-3-(trifluoromethyl)benzyl)-5-fluoro-8-oxo-5,6,7,8-tetrahydroquinoline-5-carboxamide], the figures for the IC50 in assay [1] and in assay [2] were below 50 nM and below 1000 nM, respectively.

Turning to `O=C1CC[C@@](F)(C(=O)NCc2ccc(Cl)cc2Cl)c2cccnc21` [Example 248, (S)-N-(2,4-dichloro-benzyl)-5-fluoro-8-oxo-5,6,7,8-tetrahydroquinoline-5-carboxamide], the IC50 in assay [1] is below 50 nM; in assay [2] it was below 1000 nM.

With `O=C1CC[C@@](F)(C(=O)NCc2ccc(F)cc2Cl)c2cccnc21` [Example 249, (S)-N-(2-chloro-4-fluorobenzyl)-5-fluoro-8-oxo-5,6,7,8-tetra-hydroquinoline-5-carboxamide], the IC50 in assay [1] was 50 to 100 nM; in assay [2] it was below 1000 nM.

Take `O=C1CC[C@@](F)(C(=O)NCc2cccc(F)c2Cl)c2cccnc21` [Example 250, (S)-N-(2-chloro-3-fluorobenzyl)-5-fluoro-8-oxo-5,6,7,8-tetrahydro-quinoline-5-carboxamide]: the IC50 in assay [1] is 101 to 300 nM; in assay [2], below 1000 nM.

Consider `O=C1CC[C@@](F)(C(=O)NCc2c(F)cc(Cl)cc2Cl)c2cccnc21` [Example 251, (S)-N-(2,4-dichloro-6-fluorobenzyl)-5-fluoro-8-oxo-5,6,7,8-tetrahydro-quinoline-5-carboxamide], for which the figures for the IC50 in assay [1] and in assay [2] were below 50 nM and below 1000 nM, respectively.

For `O=C1CC[C@@](F)(C(=O)NCc2cccc(Cl)c2Cl)c2cccnc21` [Example 252, (S)-N-(2,3-dichloro-benzyl)-5-fluoro-8-oxo-5,6,7,8-tetrahydroquinoline-5-carboxamide], the IC50 in assay [1] is below 50 nM; in assay [2], below 1000 nM.

Regarding `O=C1CC[C@@](F)(C(=O)NCc2ccc(C(F)(F)F)cc2Cl)c2cccnc21` [Example 253, (S)-N-(2-chloro-4-(trifluoromethyl)benzyl)-5-fluoro-8-oxo-5,6,7,8-tetrahydroquinoline-5-carboxamide], the IC50 in assay [1] is below 50 nM; in assay [2], below 1000 nM.

For `O=C1CC[C@@](F)(C(=O)NCc2ccc(F)c(F)c2F)c2cccnc21` [Example 254, (S)-5-fluoro-8-oxo-N-(2,3,4-trifluorobenzyl)-5,6,7,8-tetrahydro-quinoline-5-carboxamide], the IC50 was 301 to 1000 nM in assay [1] and below 1000 nM in assay [2].

On to `C[C@]1(O)CC[C@@](F)(C(=O)NCc2ccc(Cl)cc2Cl)c2cccnc21` [Example 256, (5S,8S)-N-(2,4-dichlorobenzyl)-5-fluoro-8-hydroxy-8-methyl-5,6,7,8-tetrahydroquinoline-5-carboxamide], for which the IC50 was below 50 nM in assay [1] and below 1000 nM in assay [2].

For the compound `C[C@@]1(O)CC[C@@](F)(C(=O)NCc2ccc(Cl)cc2Cl)c2cccnc21` [Example 257, (5S,8R)-N-(2,4-dichlorobenzyl)-5-fluoro-8-hydroxy-8-methyl-5,6,7,8-tetrahydroquinoline-5-carboxamide], the figures for the IC50 in assay [1] and in assay [2] were 101 to 300 nM and below 1000 nM, respectively.

As to `C[C@]1(O)CC[C@@](F)(C(=O)NCc2ccc(F)c(F)c2F)c2cccnc21` [Example 258, (5S,8S)-5-fluoro-8-hydroxy-8-methyl-N-(2,3,4-trifluorobenzyl)-5,6,7,8-tetrahydroquinoline-5-carboxamide], the IC50 in assay [1] is below 50 nM; in assay [2] it was below 1000 nM.

Take `C[C@]1(O)CC[C@@](F)(C(=O)NCc2ccc(F)cc2Cl)c2cccnc21` [Example 259, (5S,8S)-N-(2-chloro-4-fluorobenzyl)-5-fluoro-8-hydroxy-8-methyl-5,6,7,8-tetrahydroquinoline-5-carboxamide]: the IC50 in assay [1] was below 50 nM; in assay [2], below 1000 nM.

For `C[C@@]1(O)CC[C@@](F)(C(=O)NCc2ccc(F)cc2Cl)c2cccnc21` [Example 260, (5S,8R)-N-(2-chloro-4-fluorobenzyl)-5-fluoro-8-hydroxy-8-methyl-5,6,7,8-tetrahydroquinoline-5-carboxamide], the IC50 in assay [1] is 301 to 1000 nM; in assay [2], below 1000 nM.

As to `C[C@]1(O)CC[C@@](F)(C(=O)NCc2c(Cl)cc(Cl)cc2CO)c2cccnc21` [Example 261, (5S,8S)-N-(2,4-dichloro-6-(hydroxymethyl)benzyl)-5-fluoro-8-hydroxy-8-methyl-5,6,7,8-tetrahydroquinoline-5-carboxamide], the IC50 was below 50 nM in assay [1] and below 1000 nM in assay [2].

For the compound `C[C@]1(O)CC[C@@](F)(C(=O)NCc2c(Cl)cc(F)cc2CO)c2cccnc21` [Example 262, (5S,8S)-N-(2-chloro-4-fluoro-6-(hydroxymethyl)benzyl)-5-fluoro-8-hydroxy-8-methyl-5,6,7,8-tetrahydroquinoline-5-carboxamide], the figures for the IC50 in assay [1] and in assay [2] were below 50 nM and below 1000 nM, respectively.

On to `C[C@]1(O)CC[C@@](F)(C(=O)NCc2ccc(F)cc2F)c2cccnc21` [Example 263, (5S,8S)-N-(2,4-difluorobenzyl)-5-fluoro-8-hydroxy-8-methyl-5,6,7,8-tetrahydroquinoline-5-carboxamide], for which the IC50 was below 50 nM in assay [1] and below 1000 nM in assay [2].

On to `C[C@]1(O)CC[C@@](F)(C(=O)NCc2ccc(Cl)cc2F)c2cccnc21` [Example 264, (5S,8S)-N-(4-chloro-2-fluorobenzyl)-5-fluoro-8-hydroxy-8-methyl-5,6,7,8-tetrahydroquinoline-5-carboxamide], for which the figures for the IC50 in assay [1] and in assay [2] were below 50 nM and below 1000 nM, respectively.

As to `C[C@]1(O)CC[C@@](F)(C(=O)NCc2ccc(F)c(Cl)c2F)c2cccnc21` [Example 268, (5S,8S)-N-(3-chloro-2,4-difluorobenzyl)-5-fluoro-8-hydroxy-8-methyl-5,6,7,8-tetrahydroquinoline-5-carboxamide], the IC50 in assay [1] is below 50 nM; in assay [2], below 1000 nM.

For `C[C@]1(O)CC[C@@](F)(C(=O)NCc2c(F)cc(Cl)cc2F)c2cccnc21` [Example 269, (5S,8S)-N-(4-chloro-2,6-difluorobenzyl)-5-fluoro-8-hydroxy-8-methyl-5,6,7,8-tetrahydroquinoline-5-carboxamide], the figures for the IC50 in assay [1] and in assay [2] were below 50 nM and below 1000 nM, respectively.

Regarding `C[C@@H](NC(=O)[C@]1(F)CC[C@](C)(O)c2ncccc21)c1ccc(F)cc1Cl` [Example 270, (5S,8S)-N-((R)-1-(2-chloro-4-fluorophenyl)ethyl)-5-fluoro-8-hydroxy-8-methyl-5,6,7,8-tetrahydroquinoline-5-carboxamide], the IC50 in assay [1] is below 50 nM; in assay [2], below 1000 nM.

With `C[C@]1(O)CC[C@@](F)(C(=O)NCc2ncc(Cl)cc2Cl)c2cccnc21` [Example 272, (5S,8S)-N-((3,5-dichloropyridin-2-yl)methyl)-5-fluoro-8-hydroxy-8-methyl-5,6,7,8-tetrahydroquinoline-5-carboxamide], the figures for the IC50 in assay [1] and in assay [2] were below 50 nM and below 1000 nM, respectively.

Regarding `C[C@]1(O)CC[C@@](F)(C(=O)NCC2(N3CCOCC3)CCCCC2)c2cccnc21` [Example 274, (5S,8S)-5-fluoro-8-hydroxy-8-methyl-N-((1-morpholinocyclohexyl)methyl)-5,6,7,8-tetrahydroquinoline-5-carboxamide], the IC50 in assay [1] was below 50 nM; in assay [2], below 1000 nM.

The values above are taken from patent publication US11077100B2, “Tetrahydroquinoline derivatives as P2X7 receptor antagonists” (RaQualia Pharma Inc., priority 2017, dated 2021).
